The values below are quoted from earlier work in patent US20230265432A1, “METHODS AND COMPOSITIONS FOR TREATING ACUTE MYELOID LEUKEMIA” (Sanford Burnham Prebys Medical Discovery Institute, priority 2021, published 2023).

One data set deals with SIRT2 (Homo sapiens, UniProt Q8IXJ6). To be noted: cited from earlier work.
For a further data set, the target named is SIRT3 (Homo sapiens, UniProt Q9NTG7). To be noted: cited from earlier work.
A further data set addresses yeast Hmt1p (Saccharomyces cerevisiae, UniProt P38074). To be noted: cited from earlier work.
Data set [1] addresses T1, HIV-1 reverse transcriptase (Human immunodeficiency virus type 1 group M subtype B, UniProt P04585).
T1 construct: HIV-1 reverse transcriptase
As to conditions: cited from earlier work.

The next data set concerns the target SMYD2 (Homo sapiens, UniProt Q9NRG4). To be noted: cited from earlier work.
Data set [2] concerns phosphorylation of histone 2A at Thr120 in DU-145 human prostate cancer cells. To be noted: cited from earlier work.
For another data set, the target named is HDAC2 (Homo sapiens, UniProt Q92769). To be noted: cited from earlier work.
The target of the next data set is HDAC4 (Homo sapiens, UniProt P56524). As to conditions: cited from earlier work.
The next data set deals with HCT116. To be noted: cited from earlier work.
Another data set has as its system HuT-78 cells. As to conditions: cited from earlier work.
The test system of the next data set is human dermal fibroblasts. To be noted: cited from earlier work.
For the next data set, the target named is T2, HDAC6 (Homo sapiens, UniProt Q9UBN7).
T2 sequence (Q9UBN7 1-1215): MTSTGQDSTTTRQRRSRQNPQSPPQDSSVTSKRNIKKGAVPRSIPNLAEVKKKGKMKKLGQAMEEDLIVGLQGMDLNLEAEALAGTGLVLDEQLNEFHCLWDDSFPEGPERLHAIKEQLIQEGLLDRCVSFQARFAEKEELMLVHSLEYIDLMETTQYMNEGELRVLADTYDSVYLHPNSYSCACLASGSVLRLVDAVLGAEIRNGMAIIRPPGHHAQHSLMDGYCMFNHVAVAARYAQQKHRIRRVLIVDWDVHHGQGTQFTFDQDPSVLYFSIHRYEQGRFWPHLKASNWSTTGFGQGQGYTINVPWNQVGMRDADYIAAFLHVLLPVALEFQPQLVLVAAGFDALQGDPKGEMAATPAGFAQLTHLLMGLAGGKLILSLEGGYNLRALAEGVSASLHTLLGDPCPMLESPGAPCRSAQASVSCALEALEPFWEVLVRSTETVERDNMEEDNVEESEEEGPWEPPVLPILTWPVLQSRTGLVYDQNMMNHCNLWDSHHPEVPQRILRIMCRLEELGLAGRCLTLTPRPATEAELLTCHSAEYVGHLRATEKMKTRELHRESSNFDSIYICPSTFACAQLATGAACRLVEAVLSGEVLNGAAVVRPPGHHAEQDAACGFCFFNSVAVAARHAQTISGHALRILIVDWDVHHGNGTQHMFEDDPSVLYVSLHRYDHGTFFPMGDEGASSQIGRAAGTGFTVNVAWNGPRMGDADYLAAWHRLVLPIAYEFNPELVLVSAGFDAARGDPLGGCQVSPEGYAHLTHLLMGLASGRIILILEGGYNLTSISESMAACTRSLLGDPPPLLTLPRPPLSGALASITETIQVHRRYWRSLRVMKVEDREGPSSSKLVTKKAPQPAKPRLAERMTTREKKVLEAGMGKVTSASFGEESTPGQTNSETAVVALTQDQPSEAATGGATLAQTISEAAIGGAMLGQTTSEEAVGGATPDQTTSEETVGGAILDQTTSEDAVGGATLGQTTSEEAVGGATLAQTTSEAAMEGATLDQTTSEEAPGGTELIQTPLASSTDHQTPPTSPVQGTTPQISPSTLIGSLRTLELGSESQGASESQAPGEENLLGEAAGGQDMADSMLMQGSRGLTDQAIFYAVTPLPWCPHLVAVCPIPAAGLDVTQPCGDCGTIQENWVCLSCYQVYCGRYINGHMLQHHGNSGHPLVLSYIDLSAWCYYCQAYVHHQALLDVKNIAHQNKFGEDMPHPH
As to conditions: cited from earlier work.

The next data set has as its system neuroblastoma tumor. To be noted: 200 mg/kg; cited from earlier work.
Data set [3] relates to RhoA/C-mediated, SRF-driven luciferase expression in PCS prostate cancer cells. To be noted: cited from earlier work.
For a further data set, the target named is HDAC8 (Homo sapiens, UniProt Q9BY41). As to conditions: cited from earlier work.
HDAC8, sequence (Q9BY41 whole entry, species assumed): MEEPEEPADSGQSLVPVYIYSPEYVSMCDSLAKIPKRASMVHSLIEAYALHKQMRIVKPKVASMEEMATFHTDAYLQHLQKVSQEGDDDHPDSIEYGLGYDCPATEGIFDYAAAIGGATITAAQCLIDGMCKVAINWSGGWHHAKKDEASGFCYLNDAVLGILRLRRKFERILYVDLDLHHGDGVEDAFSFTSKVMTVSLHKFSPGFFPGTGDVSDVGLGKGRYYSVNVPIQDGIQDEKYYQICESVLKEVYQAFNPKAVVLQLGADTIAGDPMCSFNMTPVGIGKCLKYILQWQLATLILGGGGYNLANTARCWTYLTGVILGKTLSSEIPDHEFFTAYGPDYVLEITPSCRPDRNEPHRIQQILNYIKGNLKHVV
Data set [4] has as its system trimethylation of the PRC2 target H3K27. To be noted: cited from earlier work.
In a further data set the target is EZH2 (Homo sapiens, UniProt Q15910). To be noted: cited from earlier work.
EZH2, sequence (Q15910 whole entry, species assumed): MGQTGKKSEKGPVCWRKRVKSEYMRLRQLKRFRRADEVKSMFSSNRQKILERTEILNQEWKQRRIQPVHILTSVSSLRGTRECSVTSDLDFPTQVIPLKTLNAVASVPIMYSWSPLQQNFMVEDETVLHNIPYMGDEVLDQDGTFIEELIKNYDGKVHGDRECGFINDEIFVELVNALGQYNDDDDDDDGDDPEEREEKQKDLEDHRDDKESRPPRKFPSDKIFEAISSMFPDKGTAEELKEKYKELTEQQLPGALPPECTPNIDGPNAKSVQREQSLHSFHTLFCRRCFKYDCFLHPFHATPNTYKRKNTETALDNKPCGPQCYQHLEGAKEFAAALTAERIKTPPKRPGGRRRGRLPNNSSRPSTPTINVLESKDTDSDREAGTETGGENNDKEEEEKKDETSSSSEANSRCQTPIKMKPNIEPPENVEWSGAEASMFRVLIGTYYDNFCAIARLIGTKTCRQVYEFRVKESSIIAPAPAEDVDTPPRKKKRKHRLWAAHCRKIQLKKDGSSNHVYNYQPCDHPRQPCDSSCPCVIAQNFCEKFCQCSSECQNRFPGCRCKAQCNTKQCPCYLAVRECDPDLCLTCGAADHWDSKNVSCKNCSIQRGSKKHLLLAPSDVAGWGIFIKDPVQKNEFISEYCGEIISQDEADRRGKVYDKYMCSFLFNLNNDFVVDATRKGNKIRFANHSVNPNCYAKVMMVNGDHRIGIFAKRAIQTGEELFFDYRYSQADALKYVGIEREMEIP
Data set [5] relates to trimethylation of H3K27 in HCC1806 cells. To be noted: cited from earlier work.
For the next data set, the target named is REV-ERBa (Homo sapiens, UniProt P20393). As to conditions: agonist; cited from earlier work.
In a further data set the target is EZH1 (Homo sapiens, UniProt Q92800). To be noted: cited from earlier work.
EZH1, sequence (Q92800 whole entry, species assumed): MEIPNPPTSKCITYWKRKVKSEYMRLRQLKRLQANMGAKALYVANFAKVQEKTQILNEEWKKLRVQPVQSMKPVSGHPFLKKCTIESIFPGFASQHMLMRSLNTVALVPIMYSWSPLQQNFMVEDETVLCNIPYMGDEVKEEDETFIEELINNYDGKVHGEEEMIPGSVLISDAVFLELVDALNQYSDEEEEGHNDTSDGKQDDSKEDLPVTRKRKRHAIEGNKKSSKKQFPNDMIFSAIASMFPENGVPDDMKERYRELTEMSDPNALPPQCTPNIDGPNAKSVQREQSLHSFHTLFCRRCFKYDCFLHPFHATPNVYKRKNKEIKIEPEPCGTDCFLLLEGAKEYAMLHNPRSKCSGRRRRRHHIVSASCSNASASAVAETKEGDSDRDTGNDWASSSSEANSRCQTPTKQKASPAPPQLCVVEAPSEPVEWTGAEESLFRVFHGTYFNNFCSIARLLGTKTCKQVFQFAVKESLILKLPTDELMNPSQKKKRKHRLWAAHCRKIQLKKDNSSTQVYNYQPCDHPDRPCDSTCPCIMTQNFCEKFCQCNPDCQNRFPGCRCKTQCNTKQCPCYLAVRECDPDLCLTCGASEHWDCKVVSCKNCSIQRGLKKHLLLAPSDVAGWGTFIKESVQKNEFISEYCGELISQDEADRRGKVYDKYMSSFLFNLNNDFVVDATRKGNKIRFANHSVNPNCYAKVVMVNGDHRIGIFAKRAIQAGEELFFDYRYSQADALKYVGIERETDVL
EZH1, sequence (O75530 whole entry partner, species assumed): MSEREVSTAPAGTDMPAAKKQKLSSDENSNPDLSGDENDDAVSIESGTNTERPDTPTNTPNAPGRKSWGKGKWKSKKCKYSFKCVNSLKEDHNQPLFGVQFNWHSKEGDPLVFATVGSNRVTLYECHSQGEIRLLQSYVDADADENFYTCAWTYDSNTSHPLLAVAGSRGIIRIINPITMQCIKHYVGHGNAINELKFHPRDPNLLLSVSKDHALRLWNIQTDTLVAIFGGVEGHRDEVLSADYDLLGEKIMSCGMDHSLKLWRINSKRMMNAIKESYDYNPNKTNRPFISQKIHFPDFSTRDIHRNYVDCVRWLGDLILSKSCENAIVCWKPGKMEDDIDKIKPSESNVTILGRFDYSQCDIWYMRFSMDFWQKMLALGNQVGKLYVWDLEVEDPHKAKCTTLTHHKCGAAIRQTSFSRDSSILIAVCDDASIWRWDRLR
EZH1, sequence (Q15022 whole entry partner, species assumed): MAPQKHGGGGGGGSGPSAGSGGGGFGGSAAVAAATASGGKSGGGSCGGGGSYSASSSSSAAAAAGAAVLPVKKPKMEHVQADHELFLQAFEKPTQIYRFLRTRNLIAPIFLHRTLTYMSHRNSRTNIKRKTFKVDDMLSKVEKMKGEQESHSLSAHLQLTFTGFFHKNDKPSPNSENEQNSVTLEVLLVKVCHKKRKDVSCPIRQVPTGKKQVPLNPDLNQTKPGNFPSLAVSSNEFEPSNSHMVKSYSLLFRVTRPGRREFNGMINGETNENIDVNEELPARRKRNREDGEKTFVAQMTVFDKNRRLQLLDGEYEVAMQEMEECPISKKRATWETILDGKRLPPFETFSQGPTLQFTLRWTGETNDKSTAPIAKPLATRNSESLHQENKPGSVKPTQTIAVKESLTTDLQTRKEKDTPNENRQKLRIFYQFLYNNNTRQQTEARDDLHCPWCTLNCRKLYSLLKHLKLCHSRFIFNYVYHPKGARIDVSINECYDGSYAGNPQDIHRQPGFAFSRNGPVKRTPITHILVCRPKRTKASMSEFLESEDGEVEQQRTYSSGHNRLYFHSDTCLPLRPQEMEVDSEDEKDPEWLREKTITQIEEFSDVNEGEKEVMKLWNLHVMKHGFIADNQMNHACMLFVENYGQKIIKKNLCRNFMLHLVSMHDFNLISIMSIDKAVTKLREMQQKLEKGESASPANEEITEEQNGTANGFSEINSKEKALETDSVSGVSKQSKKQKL
EZH1, sequence (Q09028 whole entry partner, species assumed): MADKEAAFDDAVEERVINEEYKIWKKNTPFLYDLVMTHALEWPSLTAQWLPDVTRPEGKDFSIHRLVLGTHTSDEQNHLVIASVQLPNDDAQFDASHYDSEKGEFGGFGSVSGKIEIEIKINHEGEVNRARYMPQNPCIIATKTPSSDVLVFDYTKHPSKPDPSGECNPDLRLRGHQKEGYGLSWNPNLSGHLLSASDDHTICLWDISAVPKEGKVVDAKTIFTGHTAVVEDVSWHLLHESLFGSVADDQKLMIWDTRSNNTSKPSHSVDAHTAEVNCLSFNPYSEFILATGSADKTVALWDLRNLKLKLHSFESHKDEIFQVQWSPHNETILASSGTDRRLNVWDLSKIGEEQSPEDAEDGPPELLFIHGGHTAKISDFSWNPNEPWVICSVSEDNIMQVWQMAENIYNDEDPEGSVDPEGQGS
Data set [6] concerns EZH2 mutant DLBCL cell lines. As to conditions: proliferation; cited from earlier work.
In another data set the target is UTX (Homo sapiens, UniProt O15550). To be noted: as measured by mass spectrometry; cited from earlier work.
UTX, sequence (O15550 whole entry, species assumed): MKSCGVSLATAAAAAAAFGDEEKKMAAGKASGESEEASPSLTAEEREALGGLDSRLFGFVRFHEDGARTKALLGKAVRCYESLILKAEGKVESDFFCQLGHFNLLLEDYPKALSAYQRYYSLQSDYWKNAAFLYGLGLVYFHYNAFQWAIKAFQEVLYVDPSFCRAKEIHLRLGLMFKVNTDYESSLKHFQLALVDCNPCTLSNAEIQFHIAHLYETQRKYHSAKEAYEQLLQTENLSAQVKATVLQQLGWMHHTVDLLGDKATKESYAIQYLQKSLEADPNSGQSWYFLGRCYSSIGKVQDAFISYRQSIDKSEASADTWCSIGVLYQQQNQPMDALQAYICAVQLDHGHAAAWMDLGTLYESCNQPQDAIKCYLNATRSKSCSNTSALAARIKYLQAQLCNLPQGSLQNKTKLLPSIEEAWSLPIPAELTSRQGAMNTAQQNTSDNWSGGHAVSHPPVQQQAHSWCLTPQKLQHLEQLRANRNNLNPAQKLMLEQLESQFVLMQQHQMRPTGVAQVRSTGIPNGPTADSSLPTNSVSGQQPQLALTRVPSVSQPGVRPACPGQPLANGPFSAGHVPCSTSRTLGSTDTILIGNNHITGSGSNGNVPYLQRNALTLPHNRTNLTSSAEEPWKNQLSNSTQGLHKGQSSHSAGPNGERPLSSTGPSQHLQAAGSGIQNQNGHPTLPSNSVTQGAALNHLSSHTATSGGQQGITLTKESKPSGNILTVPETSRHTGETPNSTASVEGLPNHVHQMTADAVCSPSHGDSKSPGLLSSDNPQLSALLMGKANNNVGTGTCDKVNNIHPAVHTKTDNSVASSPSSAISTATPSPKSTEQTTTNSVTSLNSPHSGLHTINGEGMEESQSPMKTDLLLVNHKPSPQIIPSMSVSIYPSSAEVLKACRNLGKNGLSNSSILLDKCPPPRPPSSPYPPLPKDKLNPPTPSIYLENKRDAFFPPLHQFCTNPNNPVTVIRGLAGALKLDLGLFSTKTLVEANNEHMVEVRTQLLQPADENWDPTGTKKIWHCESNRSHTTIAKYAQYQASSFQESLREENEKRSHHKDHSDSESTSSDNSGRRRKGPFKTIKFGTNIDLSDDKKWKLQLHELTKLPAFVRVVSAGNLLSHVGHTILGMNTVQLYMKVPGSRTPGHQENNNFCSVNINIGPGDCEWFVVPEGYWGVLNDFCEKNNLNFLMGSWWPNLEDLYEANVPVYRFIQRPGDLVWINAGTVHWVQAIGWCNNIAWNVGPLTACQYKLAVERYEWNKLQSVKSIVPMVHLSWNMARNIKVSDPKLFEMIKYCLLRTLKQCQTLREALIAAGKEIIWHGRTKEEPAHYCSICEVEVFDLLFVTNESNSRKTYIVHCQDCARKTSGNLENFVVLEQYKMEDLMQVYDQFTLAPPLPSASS
In data set [7] the test system is various cancer cell lines. To be noted: proliferation; cited from earlier work.
Another data set deals with CBP (Homo sapiens, UniProt Q92793). To be noted: cited from earlier work.
CBP, sequence (Q92793 1081-1197 limits assumed): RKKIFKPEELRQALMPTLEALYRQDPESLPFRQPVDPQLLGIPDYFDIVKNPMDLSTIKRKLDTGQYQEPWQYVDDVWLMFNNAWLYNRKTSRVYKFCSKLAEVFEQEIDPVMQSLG
The target in a further data set is T3, SIRT1 (Homo sapiens, UniProt Q96EB6).
T3 sequence (Q96EB6 1-747): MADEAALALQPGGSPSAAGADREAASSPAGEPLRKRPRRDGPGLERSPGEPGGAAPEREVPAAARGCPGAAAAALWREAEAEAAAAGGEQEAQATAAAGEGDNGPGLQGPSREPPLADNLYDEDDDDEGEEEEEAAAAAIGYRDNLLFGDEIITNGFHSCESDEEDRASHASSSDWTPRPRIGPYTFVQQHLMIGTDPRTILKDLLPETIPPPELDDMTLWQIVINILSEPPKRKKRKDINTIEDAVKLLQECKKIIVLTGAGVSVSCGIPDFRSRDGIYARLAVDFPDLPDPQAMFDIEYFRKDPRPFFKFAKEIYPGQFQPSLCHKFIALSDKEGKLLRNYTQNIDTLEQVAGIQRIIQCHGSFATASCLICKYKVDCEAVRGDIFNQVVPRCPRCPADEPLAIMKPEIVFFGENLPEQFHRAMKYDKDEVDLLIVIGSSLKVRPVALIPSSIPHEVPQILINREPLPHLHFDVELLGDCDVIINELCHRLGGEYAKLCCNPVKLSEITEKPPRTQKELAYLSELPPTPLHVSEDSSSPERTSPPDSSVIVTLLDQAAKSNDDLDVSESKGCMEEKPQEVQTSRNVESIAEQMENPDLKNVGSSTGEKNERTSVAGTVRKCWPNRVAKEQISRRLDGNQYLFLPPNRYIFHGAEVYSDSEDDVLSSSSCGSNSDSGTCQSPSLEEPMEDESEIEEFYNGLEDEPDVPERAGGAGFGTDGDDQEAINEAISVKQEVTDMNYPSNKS
As to conditions: cited from earlier work.

The test system of data set [8] is metastatic breast cancer MDA-MB 231 cell. As to conditions: cited from earlier work.
Another data set addresses JMJD2A (Homo sapiens, UniProt O75164). To be noted: cited from earlier work.
The target of the next data set is JMJD2B (Homo sapiens, UniProt O94953). As to conditions: cited from earlier work.
Data set [9] relates to HDAC activity in HeLa cell nuclear lysates. To be noted: cited from earlier work.
For the next data set, the target named is SIRT5 (Homo sapiens, UniProt Q9NXA8). To be noted: cited from earlier work.
For data set [10], the system named is H3K9 dimethylation in MDA-MB231 cells. As to conditions: cited from earlier work.
For data set [11], the target named is G9a and GLP methyltransferases. To be noted: competitive with H3K9 substrates; cited from earlier work.
Data set [12] relates to H3K9 dimethylation levels in PANC-1 cells. To be noted: cited from earlier work.
The target in the next data set is GLP (Homo sapiens, UniProt Q9H9B1). As to conditions: cited from earlier work.
The test system of data set [13] is H3K27methylation in MCF10A cells. As to conditions: cited from earlier work.
A further data set addresses WDR5 (Homo sapiens, UniProt P61964). To be noted: cited from earlier work.
The target of another data set is MLL core complex (Homo sapiens, UniProt P61964). As to conditions: in vitro; cited from earlier work.

Counter-ions that a name gives are not always drawn.

`N#C/C(=C\c1ccc(-c2cc(Cl)ccc2Cl)o1)C(=O)Nc1cccc2cccnc12` [AGK7]: the 50% inhibitory concentration (IC50) is > 50000 nM on SIRT2 and > 5000 nM at SIRT3.
In the case of `O=C(Nc1ccc2c(O)cc(S(=O)(=O)O)cc2c1)Nc1ccc2c(O)cc(S(=O)(=O)O)cc2c1` [AMI-1 (sodium salt)], the half-inhibitory concentration (IC50) was 3000 nM at yeast Hmt1p and 5000 nM in [1].
With `O=C1COc2c(CCNCCN(C(=O)CCNCCc3ccc(Cl)c(Cl)c3)C3CCCCC3)ccc(O)c2N1` [AZ 505], on SMYD2, the 50% inhibitory concentration (IC50) was 120 nM.
As for `C(=N\Nc1ncnc2sc3c(c12)CCCC3)/c1c[nH]c2ccccc12` [B32B3], the IC50 in data set [2] was 500 nM.
As to `CCOC(=O)NCCCC(=O)NCCc1ccccc1` [CAY10683], the IC50 was 0.119 nM on HDAC2, > 1000 nM on HDAC4 and 434 nM at HDAC6. For the same compound, the 50% growth inhibitory concentration (GI50) in the data set with HCT116 is 29400 nM; with HuT-78 cells, 1400 nM; with human dermal fibroblasts, > 100000 nM.
`O=C(/C=C/c1cccc(C(=O)NO)c1)NO` [CBHA]: the neuroblastoma tumor growth entry in the data set on neuroblastoma tumor is on record as “completely suppresses neuroblastoma tumor growth in SCID”.
On to `O=C(Nc1ccc(Cl)cc1)C1CCCN(C(=O)c2cc(C(F)(F)F)cc(C(F)(F)F)c2)C1` (stereo not shown) [CCG-100602], for which the IC50 in data set [3] is 9800 nM.
As to `Cc1cc(Cl)ccc1OCCCC(=O)NO` [Droxinostat], at HDAC8, the IC50 is 1460 nM.
Turning to `Cc1cc(C)c(CNC(=O)c2cc(-c3ccc(CN4CCOCC4)cc3)cc3c2cnn3C2CCCC2)c(=O)[nH]1` [EPZ005687], in data set [4], the IC50 was 80 nM.
In the case of `CCCc1cc(C)[nH]c(=O)c1CNC(=O)c1cc(-c2ccnc(N3CCN(C)CC3)c2)cc2c1cnn2C(C)C` [GSK343], the IC50 is 4 nM at EZH2 and 174 nM in data set [5].
On to `CC(C)(C)OC(=O)CN(Cc1ccc(Cl)cc1)Cc1ccc([N+](=O)[O-])s1` [GSK4112], for which, on REV-ERBa, the half-maximal effective concentration (EC50) is 400 nM.
For `CC[C@H](C)n1cc(C)c2c(C(=O)NCc3c(C)cc(C)[nH]c3=O)cc(-c3ccc(N4CCNCC4)nc3)cc21` [GSK 126], the values for the IC50 (at EZH1; in data set [6]) were 680 nM and 28 to 61 nM, respectively. The Ki on EZH1 is 89 nM.
For `O=C(O)CCNc1cc(N2CCc3ccccc3CC2)nc(-c2ccccn2)n1` [GSK-J1 (sodium salt)], the IC50 on UTX is 56000 nM.
For the compound `c1ccc([C@@H]2C[C@H]2NC2CCNCC2)cc1` [GSK-LSD1 (hydrochloride)], in data set [7], the half-maximal effective concentration (EC50) is < 5 nM.
In the case of `CCC(=O)N1CCOc2c(cc(-c3ccc(OC)c(OC)c3)cc2OC[C@H]2CCCN(C)C2)C1` [I-CBP112 (hydrochloride)], the Kd at CBP was 142 nM.
For `O=C(NCc1ccccc1)c1c(/N=C/c2c(O)ccc3ccccc23)sc2c1CCCC2` [JGB1741], the IC50 at SIRT1 was 15000 nM; in data set [8], 512 nM.
Take `Clc1ccc(N/N=C(\c2ccccc2)c2ccccn2)nc1` [JIB-04]: the half-inhibitory concentration (IC50) on JMJD2A is 445 nM; at JMJD2B it was 435 nM.
For the compound `C#CCCCC(=O)Nc1ccc(C(=O)c2ccc(NC(=O)CCCCCCC(=O)NO)cc2)cc1` [SAHA-BPyne], in [9], the IC50 was ~3000 nM.
For `O=c1[nH]c(=S)[nH]c(-c2ccccc2)c1Cc1c(O)ccc2ccccc12` [SIRT1/2 Inhibitor IV], on SIRT5, the IC50 was > 300000 nM.
As to `COc1cc2c(NC3CCN(C(C)C)CC3)nc(N3CCC(F)(F)CC3)nc2cc1OCCCN1CCCC1` [UNC0642], the figures for the IC50 in data set [10] and in [12] were 110 nM and 40 nM, respectively. The Ki in [11] was 3.7 nM.
For the compound `COc1cc2c(NC3CCN(C4CCCCC4)CC3)nc(N3CCCN(C(C)C)CC3)nc2cc1OCCCN1CCCCC1` [UNC0646], the IC50 was 15 nM on GLP and 26 nM in [10].
With `CCCc1cc(C)[nH]c(=O)c1CNC(=O)c1cc(-c2ccc(N3CCN(C(C)C)CC3)nc2)cc2c1cnn2C(C)C` [UNC1999], the IC50 was 2 nM at EZH2 and 124 nM in data set [13].
Consider `COC(=O)c1ccc(N2CCN(C)CC2)c(NC(=O)c2cccc(OC)c2)c1` [WDR5-0103], for which the Kd at WDR5 was 450 nM. Besides, on MLL core complex, the 50% inhibitory concentration (IC50) is 39000 nM.

The term IC50 denotes the concentration that gives 50% inhibition. The GI50 is the concentration that inhibits growth by half. Usually EC50 stands for the concentration at which the effect is half-maximal. One may read the Ki as the dissociation constant of the complex between target and ligand, obtained from inhibition or displacement. In general, Kd refers to the constant that tells how readily two partners part at equilibrium.
